Reference: patent US9388468B2, “Truncated CD20 protein, deltaCD20” (ETABLISSEMENT FRANCAIS DU SANG (EFS), priority 2008, dated 2016)

System: RMAS-HHD cells
Assay: T cytotoxic response (CTL) induction by peptide vaccination, 51Cr release specific lysis
Type: in vivo
Method: The immunogenicity of the ΔCD20a peptides was evaluated by generating CTL on HLA-A2/DR1 and Knock-Out (KO) transgenic mice for H-2 class I and II.
The mice (4 per group) are immunised with pools of 2 or 3 peptides (2 injections at the base of the tail at an 8-day interval) with: 50 μg of each peptide, 100 μg of helper peptide (20 mers peptide from CMV-specific pp65), the whole co-emulsified with incomplete Freud adjuvant.
Seven days after the second immunisation, the spleens of the mice are removed and the splenocytes are re-stimulated in vitro with 4 μg/ml of each peptide separately. On the fifth day of culture, the respondent populations are tested to determine specific cytotoxicity. The cells, with conclusive cytotoxicity, are re-stimulated in vitro at one-week intervals to obtain specific CTLs.
RMAS-HHD cells are used as targets to study cytotoxicity. These target cells are filled with 10 μg/ml of the peptide under test, or a non-relevant control peptide, at 37° C. for 90 minutes and labelled with 100 μCi of 51Cr for 90 minutes, and washed three times. […] After incubation, 50 μl of supernatant is collected, transferred into specific plates (Lumaplate) and the radioactivity is measured in a γ counter. The specific lysis percentage is calculated using the formula: [(experimental 51 Cr release−spontaneous 51 Cr release)/(maximum 51 Cr release−spontaneous 51 Cr release)]×100.

For “peptide No. 4: ΔCD20-specific peptide overlapping the alternative splicing junction zone, restricted for HLA-A*0201; probably SEQ ID NO: 9 (RMSSLELVI)”, the “mice that developed T cytotoxic response against the peptide” value (immunisation group A, 4 mice per group, 2 injections of 50 μg of each peptide, splenocytes re-stimulated in vitro) was “Three out of 4” and the “CTLs generated by immunisation killing peptide-charged RMAS-HHD targets” value (targets charged with 10 μg/ml peptide, not cells charged with non-relevant peptide) was “generates CTLs killing RMAS-HHD targets charged with said peptide”.
